According to patent US4008323A, “Method of reducing cholesterol using certain aromatic keto acids” (Pierre Fabre S.A., priority 1974, dated 1977):
Like-named read-outs stand apart in the source and are kept apart here.

Columns and labels:
[1] = test system: writhings induced by phenylbenzoquinone; assay: Writhing test, phenylbenzoquinone (analgetic); type: in vivo, mice; conditions: 300 mg/kg oral, t + 35 to t + 40 min
Procedure: The analgetic properties of certain compounds were shown in mice by the "writhing test" method, that is to say with reference to the writhings induced by phenylbenzoquinone. The administration of the product is effected orally at time t; it is followed by the intraperitoneal injection of 0.2% phenylbenzoquinone at t + 30 min. The determination of the writhings is effected from t + 35 min. to t + 40 min. One lot of animals receiving only the vehicle (5% Tween 80 in 0.9% NaCl) serves as control.

[2] = test system: carrageenin edema; assay: Carrageenin edema test in rats (antiinflammatory); type: in vivo; conditions: for % var. / action (variation of paw volume increase vs controls) / change in vivo at 75 mg/kg: 75 mg/kg oral; for change in vivo at 75 mg/kg / change in vivo at 200 mg/kg / change in vivo at 30 mg/kg / change in vivo at 50 mg/kg / change in vivo at 100 mg/kg / change in vivo at 300 mg/kg: Rattus norvegicus; for change in vivo at 300 mg/kg: 300 mg/kg oral
Procedure: The antiinflammatory properties were shown by the carrageenin edema test in rats, the products having been administered orally 1 hour before the intrapodal injection of 0.05 ml of a 2% suspension of carrageenin; the volume of the rat's paw was measured by plethysmoscopy 3, 4 and 6 hours afterwards.
The experiment concerned for each lot […]; one lot of animals receiving only the vehicle (2 ml/100 g of Tween + water) which served for the administration of the products, constituted the control lot. The following table sets forth the results obtained: […]

[3] = Solubility properties; type: physicochemical; conditions: for Solubility in ethyl alcohol: ethyl alcohol / ethanol / alcohol
[4] = Acute toxicity in mice, oral LD50 (method of Miller & Tainter); conditions: mouse, in vivo, mortality determined 48 hours after administration
Procedure: The chemical compounds previously described were submitted to toxicity tests. It was determined in mice by oral administration and was calculated in accordance with the method of MILLER & TAINTER. It is generally low and greater than 1000 mg/kg.

[5] = test system: total blood cholesterol; assay: Total blood cholesterol in rats on a normal diet (hypocholesterolemizing); type: in vivo; conditions: 300 mg/kg oral, 4 consecutive days; 5th day, fasted 16 hours
Procedure: One lot of rats served as control.
The sampling was effected on the 5th day after 16 hours fasting, by cardiac puncture and the total blood cholesterol determination was effected by the Liebermann-Burchardt colorimetric method.

[6] = test system: writhings induced by acetic acid; assay: Writhing test, acetic acid (analgetic); type: in vivo, male mouse; conditions: 200 mg/kg by mouth, t + 60 to t + 70 min
Procedure: The administration of the compounds is effected by mouth at the time t. […] The determination of the writhings is effected from t + 60 min. to t + 70 min. The vehicle used for the administration of the products is a 5% solution of Tween 80 in 0.9% NaCl which will serve as control.

[7] = 3 hrs, read-out: % increase in volume of the paw, mean (m)
[8] = 4 hrs, read-out: % increase in volume of the paw, mean (m)
[9] = 6 hrs, read-out: % increase in volume of the paw, mean (m)
[10] = read-out: % mean variation of the volume of the paw at 3, 4 and 6 hrs
[11] = 200 mg/kg oral, + 3 hrs, read-out: % increase in volume of the paw, mean (m)
[12] = 200 mg/kg oral, + 3 hrs, read-out: Action (variation of paw volume increase vs controls)
[13] = 200 mg/kg oral, + 4 hrs, read-out: % increase in volume of the paw, mean (m)
[14] = 200 mg/kg oral, + 4 hrs, read-out: Action (variation of paw volume increase vs controls)
[15] = 200 mg/kg oral, + 6 hrs, read-out: % increase in volume of the paw, mean (m)
[16] = 200 mg/kg oral, + 6 hrs, read-out: Action (variation of paw volume increase vs controls)

C=C(CC(=O)c1ccc(-c2ccccc2)cc1)C(=O)O [F 1377, 2-methylene 4-oxo 4-(paraphenylphenyl) butyric acid]
% Decrease (of writhings) [1]: 68,6%
Mean No. of Writhings [1]: 8,00
% var. / action (variation of paw volume increase vs controls) ([2]; 3 hrs): -37%
% var. / action (variation of paw volume increase vs controls) ([2]; 4 hrs): -37%
% var. / action (variation of paw volume increase vs controls) ([2]; 6 hrs): -18%
change in vivo at 75 mg/kg [2, 7]: 28.8%
change in vivo at 75 mg/kg [2, 8]: 30.5%
change in vivo at 75 mg/kg [2, 9]: 37.2%
change in vivo at 75 mg/kg [2, 10]: -30%
change in vivo at 200 mg/kg [2, 11]: 27.4%
change in vivo at 200 mg/kg [2, 12]: -46%
change in vivo at 200 mg/kg [2, 13]: 28%
change in vivo at 200 mg/kg [2, 14]: -43%
change in vivo at 200 mg/kg [2, 15]: 28.4%
change in vivo at 200 mg/kg [2, 16]: -32%
change in vivo at 200 mg/kg ([2]; 200 mg/kg oral, read-out: % mean variation of the volume of the paw at 3, 4 and 6 hrs): -40%
Solubility in N-methyl pyrrolidone [3]: 15%
Solubility in dimethyl sulfoxide [3]: 10%
Solubility in ether ([3]; in words): insoluble
Solubility in propylene glycol (in words) ([3]; propylene glycol, in words): insoluble
Solubility in water in the form of sodium salt (in words) ([3]; sodium salt, water, in words): insoluble
Solubility in water ([3]; water, in words): insoluble
LD50 at 48 h [4]: > 2000 mg/kg

C=C(CC(=O)c1ccc(-c2ccccc2Cl)cc1)C(=O)O [F 1379, 2-methylene 4-oxo 4-(4'-orthochlorophenylphenyl) butyric acid]
% increase in volume of the paw, cumulative (m) ([2]; 30 mg/kg oral): 179,6%
Action, cumulative ([2]; 30 mg/kg oral): -11,7%
% increase in volume of the paw, cumulative (m) ([2]; 50 mg/kg oral): 106,1%
Action, cumulative ([2]; 50 mg/kg oral): -44,4%
% increase in volume of the paw, cumulative (m) ([2]; 100 mg/kg oral): 83,6%
Action, cumulative ([2]; 100 mg/kg oral): -56,2%
% increase in volume of the paw, cumulative (m) ([2]; 200 mg/kg oral): 77,5%
Action, cumulative ([2]; 200 mg/kg oral): -59,4%
change in vivo at 30 mg/kg ([2]; 30 mg/kg oral, + 3 hrs, read-out: % increase in volume of the paw, mean (m)): 58.4%
change in vivo at 30 mg/kg ([2]; 30 mg/kg oral, + 3 hrs, read-out: Action (variation of paw volume increase vs controls)): -17.6%
change in vivo at 30 mg/kg ([2]; 30 mg/kg oral, + 4 hrs, read-out: % increase in volume of the paw, mean (m)): 60.1%
change in vivo at 30 mg/kg ([2]; 30 mg/kg oral, + 4 hrs, read-out: Action (variation of paw volume increase vs controls)): -9.6%
change in vivo at 30 mg/kg ([2]; 30 mg/kg oral, + 6 hrs, read-out: % increase in volume of the paw, mean (m)): 61.1%
change in vivo at 30 mg/kg ([2]; 30 mg/kg oral, + 6 hrs, read-out: Action (variation of paw volume increase vs controls)): -7%
change in vivo at 50 mg/kg ([2]; 50 mg/kg oral, + 3 hrs, read-out: % increase in volume of the paw, mean (m)): 24.4%
change in vivo at 50 mg/kg ([2]; 50 mg/kg oral, + 3 hrs, read-out: Action (variation of paw volume increase vs controls)): -58.2%
change in vivo at 50 mg/kg ([2]; 50 mg/kg oral, + 4 hrs, read-out: % increase in volume of the paw, mean (m)): 34.4%
change in vivo at 50 mg/kg ([2]; 50 mg/kg oral, + 4 hrs, read-out: Action (variation of paw volume increase vs controls)): -47%
change in vivo at 50 mg/kg ([2]; 50 mg/kg oral, + 6 hrs, read-out: % increase in volume of the paw, mean (m)): 47.4%
change in vivo at 50 mg/kg ([2]; 50 mg/kg oral, + 6 hrs, read-out: Action (variation of paw volume increase vs controls)): -29.7%
change in vivo at 100 mg/kg ([2]; 100 mg/kg oral, + 3 hrs, read-out: % increase in volume of the paw, mean (m)): 18.7%
change in vivo at 100 mg/kg ([2]; 100 mg/kg oral, + 3 hrs, read-out: Action (variation of paw volume increase vs controls)): -67.9%
change in vivo at 100 mg/kg ([2]; 100 mg/kg oral, + 4 hrs, read-out: % increase in volume of the paw, mean (m)): 26.1%
change in vivo at 100 mg/kg ([2]; 100 mg/kg oral, + 4 hrs, read-out: Action (variation of paw volume increase vs controls)): -59.9%
change in vivo at 100 mg/kg ([2]; 100 mg/kg oral, + 6 hrs, read-out: % increase in volume of the paw, mean (m)): 38.8%
change in vivo at 100 mg/kg ([2]; 100 mg/kg oral, + 6 hrs, read-out: Action (variation of paw volume increase vs controls)): -42.5%
change in vivo at 200 mg/kg [2, 11]: 19.6%
change in vivo at 200 mg/kg [2, 12]: -66.4%
change in vivo at 200 mg/kg [2, 13]: 25.1%
change in vivo at 200 mg/kg [2, 14]: -61.3%
change in vivo at 200 mg/kg [2, 15]: 32.8%
change in vivo at 200 mg/kg [2, 16]: -51.3%
Total blood cholesterol, M [5]: 0,62
% Decrease (of writhings) [6]: 18,4%
Mean No. of Writhings [6]: 31,8
Solubility in NN-dimethyl acetamide [3]: 25%
Solubility in dimethyl sulfoxide [3]: 20%
Solubility in ethyl alcohol [3]: 1%
Solubility in water ([3]; water, in words, listed as Example 6): insoluble
LD50 at 48 h [4]: 1500 mg/kg

CC(=CC(=O)c1ccc(-c2ccccc2Cl)cc1)C(=O)O [F 1439, 2-methyl 4-oxo 4-(4'-O-chlorophenylphenyl) 2-butenoic acid]
% var. / action (variation of paw volume increase vs controls) ([2]; 3 hrs): -36%
% var. / action (variation of paw volume increase vs controls) ([2]; 4 hrs): -33%
% var. / action (variation of paw volume increase vs controls) ([2]; 6 hrs): -28%
change in vivo at 75 mg/kg [2, 7]: 38%
change in vivo at 75 mg/kg [2, 8]: 40%
change in vivo at 75 mg/kg [2, 9]: 40%
change in vivo at 75 mg/kg [2, 10]: -32%
Total blood cholesterol, M [5]: 0,67
Solubility in N-methyl pyrrolidone [3]: 25%
Solubility in chloroform (in words) ([3]; chloroform, in words): Soluble
Solubility in NN-dimethyl acetamide [3]: 20%
Solubility in ether ([3]; in words): Soluble
Solubility in water ([3]; water, in words): insoluble
LD50 at 48 h [4]: 2370 mg/kg

C=C(CC(=O)c1ccc(F)cc1)C(=O)O [F 1376, 2-methylene 4-oxo 4-fluorophenyl butyric acid]
change in vivo at 300 mg/kg ([2]; + 3 hrs, read-out: % increase in volume of the paw, mean (m)): 50.8%
change in vivo at 300 mg/kg ([2]; + 3 hrs, read-out: Action (variation of paw volume increase vs controls)): -17%
change in vivo at 300 mg/kg ([2]; + 4 hrs, read-out: % increase in volume of the paw, mean (m)): 51.5%
change in vivo at 300 mg/kg ([2]; + 4 hrs, read-out: Action (variation of paw volume increase vs controls)): -15%
change in vivo at 300 mg/kg ([2]; + 6 hrs, read-out: % increase in volume of the paw, mean (m)): 54.8%
change in vivo at 300 mg/kg ([2]; + 6 hrs, read-out: Action (variation of paw volume increase vs controls)): -4%
change in vivo at 300 mg/kg [2, 10]: -12%
Total blood cholesterol, M [5]: 0,66
Solubility in ethyl alcohol [3]: 20%
Solubility in propylene glycol ([3]; propylene glycol): 10%
Solubility in water ([3]; water, in words): insoluble
LD50 at 48 h [4]: 1400 mg/kg
